Measurements: patent publication US20260130933A1, “PHARMACEUTICAL COMPOSITION FOR PREVENTION OR TREATMENT OF NEPHROPATHY AND/OR DIABETES MELLITUS, COMPRISING ENAVOGLIFLOZIN” (DAEWOONG PHARMACEUTICAL CO., LTD., priority 2022, published 2026)

Experiment: Example 2: phase 3 trial, enavogliflozin 0.3 mg vs dapagliflozin 10 mg once a day for 24 weeks added to metformin in patients with type 2 diabetes (same efficacy, exploratory and safety endpoints)
Format: in vivo, human
Protocol: Subjects who met the inclusion/exclusion criteria were administered a placebo of the clinical trial drug under single-blind (subject blinding) conditions during a 2-week run-in period while continuing to receive metformin. […] The randomized subjects were administered two tablets of the clinical trial drug for each administration group once a day, and then visited the institution at weeks 6, 12, 18, and 24 during the 24-week administration period to conduct efficacy and safety evaluations.
• 1. Change in HbA1c at week 24 after administration of clinical trial drug compared to Visit 2 (randomization)
• 1. Change in HbA1c at each time point of weeks 6, 12, and 18 after administration of clinical trial drug compared to Visit 2 (randomization) • 2. Change in FPG at each time point of weeks 6, 12, 18, and 24 after administration of clinical trial drug compared to Visit 2 (randomization) • 3. Proportion of subjects achieving HbA1c<7% at each time point of weeks 6, 12, 18, and 24 after administration of clinical trial drug • 4. Proportion of subjects achieving HbA1c<6.5% at each time point of weeks 6, 12, 18, and 24 after administration of clinical trial drug • 5. Proportion of subjects achieving therapeutic response (HbA1c change (HbA1c at Visit 2-HbA1c at each evaluation time point)>0.5% or HbA1c<7% at each evaluation time point compared to Visit 2 (randomization)) at each time point of weeks 6, 12, 18 and 24 after administration of clinical trial drug
• 1. Change in fasting c-peptide at each time point of weeks 6, 12, 18, and 24 after administration of clinical trial drug compared to Visit 2 (randomization) • 2. Change in body weight at each time point of weeks 6, 12, 18, and 24 after administration of clinical trial drug compared to Visit 2 (randomization) • 3. Change in fasting lipid concentration (total cholesterol, LDL-C, HDL-C, and triglycerides) at each time point of weeks 6, 12, 18, and 24 after administration of clinical trial drug compared to Visit 2 (randomization) • 4. Changes in systolic or diastolic blood pressure at each time point of weeks 6, 12, 18, and 24 after administration of clinical trial drug compared to Visit 2 (randomization) • 5. Changes in β-cell function and insulin resistance measured by HOMA-β and HOMA-IR at each time point of weeks 6, 12, 18, and 24 after administration of clinical trial drug compared to Visit 2 (randomization) • 6. Changes in renal function-related indicators (UACR, UGCR) measured by UACR at each time point of weeks 6, 12, 18, and 24 after administration of clinical trial drug compared to Visit 2 (randomization) • 7. Changes in obesity-related indicators (adiponectin, leptin) at each time point of weeks 6, 12, 18, and 24 after administration of clinical trial drug compared to Visit 2 (randomization)

For `CCOc1ccc(Cc2cc([C@@H]3O[C@H](CO)[C@@H](O)[C@H](O)[C@H]3O)ccc2Cl)cc1` [Dapagliflozin, reference compound], the “Leptin change from baseline, ANCOVA LS mean (SE)” value (Week 12, PPS) was -2.70 ng/mL, the “Leptin change from baseline, Mean (SD)” value (Week 12, PPS) was -2.70 ng/mL and the “Leptin change from baseline, Median” value (Week 12, PPS) was -1.94 ng/mL. The “Leptin, Mean (SD)” value (Week 12, PPS) was 9.07 ng/mL, the “Leptin, Median” value (Week 12, PPS) was 6.05 ng/mL and the “UACR change from baseline, ANCOVA LS mean (SE)” value (Week 12, PPS) was -3.38 g/kg. For the same compound, the “UACR change from baseline, Mean (SD)” value (Week 12, PPS) was -8.38 g/kg, the “UACR change from baseline, Median” value (Week 12, PPS) was -1.80 g/kg and the “UACR, Mean (SD)” value (Week 12, PPS) was 49.42 g/kg. For the same compound, the “UACR, Median” value (Week 12, PPS) was 11.95 g/kg, the “UGCR change from baseline, ANCOVA LS mean (SE)” value (Week 12, PPS) was 45.14 mg/mg and the “UGCR change from baseline, Mean (SD)” value (Week 12, PPS) was 43.59 mg/mg. The “UGCR change from baseline, Median” value (Week 12, PPS) was 40.62 mg/mg, the “UGCR, Mean (SD)” value (Week 12, PPS) was 45.57 mg/mg and the “UGCR, Median” value (Week 12, PPS) was 40.89 mg/mg. The “HDL-C change from baseline, ANCOVA LS mean (SE)” value (Week 12, mPPS1) was 2.25(0.62) mg/dL, the “HDL-C change from baseline, Mean (SD)” value (Week 12, mPPS1) was 2.65(5.61) mg/dL and the “HDL-C change from baseline, Median” value (Week 12, mPPS1) was 2.00 mg/dL. The “HDL-C, Mean (SD)” value (Week 12, mPPS1) was 49.29(9.21) mg/dL, the “HDL-C, Median” value (Week 12, mPPS1) was 49.00 mg/dL and the “LDL-C change from baseline, ANCOVA LS mean (SE)” value (Week 12, mPPS1) was 0.56(1.73) mg/dL. For the same compound, the “LDL-C change from baseline, Mean (SD)” value (Week 12, mPPS1) was 1.33(16.02) mg/dL, the “LDL-C change from baseline, Median” value (Week 12, mPPS1) was 2.00 mg/dL and the “LDL-C, Mean (SD)” value (Week 12, mPPS1) was 77.54(25.39) mg/dL. The “LDL-C, Median” value (Week 12, mPPS1) was 77.00 mg/dL, the “Triglycerides change from baseline, ANCOVA LS mean (SE)” value (Week 12, mPPS1) was −10.10(4.92) mg/dL and the “Triglycerides change from baseline, Mean (SD)” value (Week 12, mPPS1) was −14.35(70.12) mg/dL. The “Triglycerides change from baseline, Median” value (Week 12, mPPS1) was -6.00 mg/dL, the “Triglycerides, Mean (SD)” value (Week 12, mPPS1) was 119.06(50.67) mg/dL and the “Triglycerides, Median” value (Week 12, mPPS1) was 104.00 mg/dL. For the same compound, the “Diastolic blood pressure change from baseline, ANCOVA LS mean (SE)” value (Week 12, mPPS2) was −4.35 mmHg, the “Diastolic blood pressure change from baseline, Mean (SD)” value (Week 12, mPPS2) was −4.06 mmHg and the “Diastolic blood pressure change from baseline, Median” value (Week 12, mPPS2) was −3.00 mmHg. For the same compound, the “Diastolic blood pressure, Mean (SD)” value (Week 12, mPPS2) was 71.86 mmHg, the “Diastolic blood pressure, Median” value (Week 12, mPPS2) was 72.00 mmHg and the “Systolic blood pressure change from baseline, ANCOVA LS mean (SE)” value (Week 12, mPPS2) was −6.12(1.07) mmHg. For the same compound, the “Systolic blood pressure change from baseline, Mean (SD)” value (Week 12, mPPS2) was −5.86(11.46) mmHg, the “Systolic blood pressure change from baseline, Median” value (Week 12, mPPS2) was −6.00 mmHg and the “Systolic blood pressure, Mean (SD)” value (Week 12, mPPS2) was 121.46(12.64) mmHg. The “Systolic blood pressure, Median” value (Week 12, mPPS2) was 123.00 mmHg, the Adiponectin change from baseline, ANCOVA LS mean (SE) (Week 18, PPS) was 1.29 µg/mL and the Adiponectin change from baseline, Mean (SD) (Week 18, PPS) was 1.28 µg/mL. The “Adiponectin change from baseline, Median” value (Week 18, PPS) was 0.73 ng/mL, the Adiponectin, Mean (SD) (Week 18, PPS) was 7.98 µg/mL and the Adiponectin, Median (Week 18, PPS) was 7.08 µg/mL. For the same compound, the “HOMA-IR change from baseline, ANCOVA LS mean (SE)” value (Week 18, PPS) was −1.47, the “HOMA-IR change from baseline, Mean (SD)” value (Week 18, PPS) was −1.61 and the “HOMA-IR change from baseline, Median” value (Week 18, PPS) was −1.07. For the same compound, the “HOMA-IR, Mean (SD)” value (Week 18, PPS) was 2.28, the “HOMA-IR, Median” value (Week 18, PPS) was 2.07 and the “HOMA-β change from baseline, ANCOVA LS mean (SE)” value (Week 18, PPS) was 13.49. For the same compound, the “HOMA-β change from baseline, Mean (SD)” value (Week 18, PPS) was 13.46.
